Drawing on patent US6515015B1, “Antidiabetic agents based on aryl and heteroarylacetic acids” (Merck & Co. Inc., priority 1996, dated 2003), this text covers Kd for 1 molecule.

The target in the experiment is T1, Human PPARγ2 (Homo sapiens, UniProt P37231).
T1 construct: The full length human cDNA for PPARγ2 and PPARδ were subcloned into the PGEX-2T and PGEX-KT; made in house; host or cells: E. coli (pGEX-2T vector)
T1 sequence (P37231 1-505): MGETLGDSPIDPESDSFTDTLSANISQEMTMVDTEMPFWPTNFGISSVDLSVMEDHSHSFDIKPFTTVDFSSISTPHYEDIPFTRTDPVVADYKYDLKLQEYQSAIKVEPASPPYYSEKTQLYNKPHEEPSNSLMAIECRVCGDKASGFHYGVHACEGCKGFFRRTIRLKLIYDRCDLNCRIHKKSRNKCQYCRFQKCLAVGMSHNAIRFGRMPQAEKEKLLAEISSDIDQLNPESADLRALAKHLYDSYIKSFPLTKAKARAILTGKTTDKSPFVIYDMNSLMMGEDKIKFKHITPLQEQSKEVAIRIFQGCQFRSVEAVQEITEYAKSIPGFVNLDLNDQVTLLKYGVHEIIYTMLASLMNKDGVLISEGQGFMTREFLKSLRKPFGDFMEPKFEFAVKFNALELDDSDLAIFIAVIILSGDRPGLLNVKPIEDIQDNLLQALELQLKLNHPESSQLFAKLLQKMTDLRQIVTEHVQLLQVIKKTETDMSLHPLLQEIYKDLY
Put plainly: [3H]AD-5075 displacement assay for PPARγ2. In kind it is binding. Particulars: gst-fusion human PPARγ2, charcoal separation, ~16 h at 4° C. An excerpt: Compounds of the instant invention which are useful for the above discussed treatments can be identified and/or characterized by employing the PPAR δ, and γ binding assays. The assays are useful in predicting or quantitating in vivo effects having to do with the control or modulation of glucose, free fatty acid, triglyceride, insulin or cholesterol. To evaluate IC50 or EC50, values the compounds were titrated in the appropriate assay using different concentrations of the compound to be tested. To obtain the appropriate values (%Inhibition-IC50, or %Activation-EC50), the data resulting from the assays were then analyzed by determining the best fit of a 4 parameter function to the data using the Levenberg-Marquardt non-linear fitting algorithm in Kaleidagraph (Synergy Software, Reading, Pa.). The human nuclear receptor cDNA for PPARδ (hPPARδ) has been cloned from a human osteosarcoma cell cDNA library and is fully described in A. Schmidt et al., Molecular Endocrinology, 6:1634-1641 (1992), herein incorporated by reference in its entirety. See A. Elbrecht et al., Biochem. and Biophy. Res. Comm. 224:431-437 (1996) and T. Sher et al., Biochem. 32:5598-5604 (1993) for a description of the human nuclear receptor gene PPARγ and α.
Human PPARγ2 and PPARδ, independently, were prepared as gst-fusion proteins in E. coli. […]

The structures appear in SMILES notation.

In the case of `Cc1oc(-c2ccccc2)nc1C(O)COc1ccc(CC2SC(=O)NC2=O)cc1` (stereo not shown) [AD-5075], the Kd (usually a measure of binding affinity in units of concentration) was roughly 1 nM.
